A short description of data set [1]: Microscopic observation (polarizing microscope). It counts as physicochemical. The note with it: under the microscope. An excerpt: The test sample was taken on a glass slide, spread homogeneously, and covered with a cover glass to prepare a temporary mounting slide.
A transflective polarizing microscope (VPV-900) was used. The specific procedures were as follows: adjust the brightness, fix the temporary mounting slide on the stage, align the light aperture with a low-power objective lens, and adjust the coarse focus screw until the field of view is clear. If the clarity is insufficient, use the fine focus screw for further adjustment or switch to a high-power objective lens for observation.
Bright spots can be observed in the middle of the sample in the field of view, which were crystalline structures.

The conditions of data set [2]: background statement; cited from earlier work.

`COC1=C(OC)C(=O)C(C/C=C(\C)CC/C=C(\C)CC/C=C(\C)CC/C=C(\C)CC/C=C(\C)CC/C=C(\C)CC/C=C(\C)CC/C=C(\C)CC/C=C(\C)CCC=C(C)C)=C(C)C1=O` [Coenzyme Q10, coenzyme Q10]: the results for the Microscopic structure result in data set [1] (listed as coenzyme Q10 raw material) and in data set [1] (listed as raw material of coenzyme Q10) were “irregular crystalline structures” and “irregular crystal structure”, respectively. For the same compound, the “Antioxidant capacity relative to vitamin E” value in data set [2] is 50 times.

The values are drawn from US20260355112A1, “HIGH-STABILITY LIPOSOME, PREPARATION METHOD THEREFOR, AND USE THEREOF” (SIRIO HEALTHCARE (ANHUI) CO., LTD., priority 2022, published 2026).
